Laboratory results: US20240277746A1, “OPHTHALMIC NANO-DISPERSION COMPOSITION, A METHOD OF PREPARATION THEREOF, AND FORMULATION FOR CORNEAL EPITHELIAL WOUND HEALING” (THE UNIVERSITY OF JORDAN, priority 2021, published 2024)

How the values were obtained:
[1] = test system: rabbit corneas subjected to epithelial debridement; assay: Corneal epithelial healing in rabbit eyes; type: in vivo
Protocol: Rabbits were used to evaluate the ability of formulations to accelerate corneal epithelial wound healing in-vivo. Xylazine was used to induce analgesia in the rabbits with intramuscular injections of about 6 mg/kg. Proparacaine 0.5% weight/volume eye drops were also used as supplemental analgesia.
The eyes were kept open during the depredation using a speculum.
Using cotton buds, about 10% of alcohol was applied to the central regions of rabbit corneas for about 20 seconds. Then epithelia within an 8 mm diameter circle in were mechanically scraped using a blunt spatula. After that, eyes were washed several times using normal saline to remove scraped epithelial cells and residual alcohol that can induce corneal irritations.
The rabbits were divided into five treatment groups. Each group contained four animals. Right eyes were selected to receive normal saline while left eyes were assigned to receive the treatment.
The treatment was either about 200 μl (4 drops) of 5% ascorbic acid solution in 0.2 N sodium phosphate buffer pH 7.4, blank oily eye drops, AA as oily eye drops and AA-2G as oily eye drops.
The treatments were administered topically to the wounded eyes, along with topical ofloxacin antibiotic drops (Oflox, Allergan, Inc.), immediately following surgery and 6, 12, 24, 30, 36, 48, 54, 60 and 72-hour post-surgery.
Throughout the healing process, rabbits were closely monitored for evidence of distress or infection, and epithelial wound closure was examined at each dosing time point by applying about 50 μL of 0.25% topical fluorescein eye drops to the injured cornea and imaging the wound under cobalt blue light.
The area of each epithelial defect was measured using “ImageJ”, an image analysis software. Percent healing (“H %”) was calculated as a percentage of the initial wound area. According to the following equation: […]
Wherein Ai indicates the wound area at a given time point and A0 indicates the initial wound area.

[2] = Corneal accumulation study (AA-2G entrapped within the corneal tissue after the permeation study); type: in vitro ADME, sheep; conditions: Qr6 hr; AA-2G in corneal tissue; mean ± SD, n = 3
Protocol: (§1) In vitro permeation and accumulation studies were performed on freshly excised sheep cornea obtained from a local slaughterhouse within an hour after the slaughter of the animals.
To quantify the amount of AA-2G entrapped within the corneal tissue after finishing the in vitro permeation study, the diffusion cells were dismantled, the corneas were quickly washed with normal saline to remove the surface-attached AA-2G, then the diffusional areas were cut out and digested using about 0.5 ml of 0.5 M NaOH for about 12 hours at about 37° C. in a shaker incubator to obtain a solution. After that, about 0.5 ml of ethanol and about 1 ml of acetonitrile were added to this solution to precipitate the dissolved proteins. The samples were then centrifuged at about 8000 rpm for about 10 minutes. The supernatants were taken and diluted with the mobile phase for HPLC analysis.

[3] = Transcorneal permeation study, Franz-type diffusion cells; type: in vitro ADME, sheep; conditions: AA-2G, mean ± SD, n = 3
Protocol: as §1
After the preparation of excised cornea, it was directly fixed between the donor and receptor compartments of Franz-type diffusion cells in such a way that its epithelial surface was facing the donor compartment and the endothelial surface was facing the receptor compartment.
The diameter of the diffusion area of the diffusion cells was 11 mm, producing an effective diffusion area of about 0.95 cm^2. The receptor compartment was filled with about 12 ml of normal saline solution stirred using teflon-coated magnetic stirring bars and maintained at a temperature of about 37° C. by circulating warm water through the water jacket around the receptor compartment. Special care was taken to expel air bubbles from the receptor fluid.
The permeation study was carried out by placing about 1 ml of either the prepared AA-2G loaded S/O nano-dispersion, AA-2G solution or normal saline on top of the cornea in the donor compartment.
An aliquot (about 0.3 ml) of the receptor fluid was withdrawn at about 0.5, 1, 1.5, 2, 3, 4, and 6 hours after beginning the experiment and replaced by an equal volume of fresh receptor solution. The receptor fluid content of AA-2G was determined quantitatively using the High-performance liquid chromatography (“HPLC”) method.

Amount accumulated per unit area Qr (accumulation) [2]	SMILES	relative healing rate (normalized to normal saline) ([1]; 6-hour)	relative healing rate (normalized to normal saline) ([1]; 12-hours)	% healing ([1]; after 6 hours, topical, rabbit, n=4)	wound-healing rate enhancement vs control (normal saline) ([1]; first 6 hours)	effect on corneal epithelial healing ([1]; rabbit eyes, topical, vs normal saline)	Amount permeated per unit area Qt ([3]; Time 0.5 hr)	Amount permeated per unit area Qt ([3]; Time 1 hr)	Amount permeated per unit area Qt ([3]; Time 1.5 hr)	Amount permeated per unit area Qt ([3]; Time 2 hr)	Amount permeated per unit area Qt ([3]; Time 3 hr)	Amount permeated per unit area Qt ([3]; Time 4 hr)	Amount permeated per unit area Qt ([3]; Time 6 hr)
–	O=C1O[C@H]([C@@H](O)CO)C(O)=C1O [AA solution, ascorbic acid]	3.28	1.39	22.9%	up to 3.28 folds	significantly increased	–	–	–	–	–	–	–
30.91 ± 1.04 μg/cm2	O=C1O[C@H]([C@@H](O)CO)C(O)=C1O[C@H]1O[C@H](CO)[C@@H](O)[C@H](O)[C@H]1O [AA-2G solution, Ascorbyl glucoside]	–	–	–	–	–	0.00 μg/cm2	0.00 μg/cm2	0.00 μg/cm2	0.00 μg/cm2	4.56 ± 3.29 μg/cm2	11.21 ± 3.67 μg/cm2	41.02 ± 0.21 μg/cm2
